Measurements taken from ChEMBL document CHEMBL3297661, “1-Substituted-5-[(3,5-dinitrobenzyl)sulfanyl]-1H-tetrazoles and their isosteric analogs: A new class of selective antitubercular agents active against drug-susceptible and multidrug-resistant mycobacteria” (Eur J Med Chem, 2014).
≈ marks a conversion by molar mass, not a printed value.

Key:
Format in all cases: functional
[1] = tested on: Mycobacterium kansasii; assay: Antimycobacterial activity against Mycobacterium kansasii CNCTC My 235/80 after 7 days by micromethod; conditions: CNCTC My 235/80, 168 h
[2] = tested on: Mycobacterium avium; assay: Antimycobacterial activity against Mycobacterium avium CNCTC My 330/88 after 21 days by micromethod; conditions: CNCTC My 330/88, 504 h
[3] = tested on: Mycobacterium kansasii; assay: Antimycobacterial activity against Mycobacterium kansasii 6509/96 after 21 days by micromethod; conditions: 6509/96, 504 h
[4] = tested on: Mycobacterium tuberculosis; assay: Antimycobacterial activity against Mycobacterium tuberculosis CNCTC My 331/88 after 14 days by micromethod; conditions: CNCTC My 331/88, 336 h
[5] = tested on: Mycobacterium tuberculosis; assay: Antimycobacterial activity against Mycobacterium tuberculosis CNCTC My 331/88 after 21 days by micromethod; conditions: CNCTC My 331/88, 504 h
[6] = tested on: Mycobacterium avium; assay: Antimycobacterial activity against Mycobacterium avium CNCTC My 330/88 after 14 days by micromethod; conditions: CNCTC My 330/88, 336 h
[7] = tested on: Mycobacterium kansasii; assay: Antimycobacterial activity against Mycobacterium kansasii CNCTC My 235/80 after 21 days by micromethod; conditions: CNCTC My 235/80, 504 h
[8] = tested on: Mycobacterium kansasii; assay: Antimycobacterial activity against Mycobacterium kansasii 6509/96 after 14 days by micromethod; conditions: 6509/96, 336 h
[9] = tested on: Mycobacterium kansasii; assay: Antimycobacterial activity against Mycobacterium kansasii CNCTC My 235/80 after 14 days by micromethod; conditions: CNCTC My 235/80, 336 h
[10] = tested on: Mycobacterium kansasii; assay: Antimycobacterial activity against Mycobacterium kansasii 6509/96 after 7 days by micromethod; conditions: 6509/96, 168 h

Compound | MIC [1] | MIC [2] | MIC [3] | MIC [4] | MIC [5] | MIC [6] | MIC [7] | MIC [8] | MIC [9] | MIC [10]
COc1ccc(-n2nnnc2S(=O)(=O)Cc2cc([N+](=O)[O-])cc([N+](=O)[O-])c2)cc1 | 125 µM (≈ 52.5 µg/mL) | 125 µM (≈ 52.5 µg/mL) | 125 µM (≈ 52.5 µg/mL) | 8 µM (≈ 3.36 µg/mL) | 8 µM (≈ 3.36 µg/mL) | 125 µM (≈ 52.5 µg/mL) | 250 µM (≈ 105 µg/mL) | 125 µM (≈ 52.5 µg/mL) | 250 µM (≈ 105 µg/mL) | 125 µM (≈ 52.5 µg/mL)
O=[N+]([O-])c1cc(CSc2nnnn2-c2ccc(F)cc2)cc([N+](=O)[O-])c1 | 2 µM (≈ 0.753 µg/mL) | 250 µM (≈ 94.1 µg/mL) | 16 µM (≈ 6.02 µg/mL) | 2 µM (≈ 0.753 µg/mL) | 2 µM (≈ 0.753 µg/mL) | 250 µM (≈ 94.1 µg/mL) | 4 µM (≈ 1.51 µg/mL) | 8 µM (≈ 3.01 µg/mL) | 4 µM (≈ 1.51 µg/mL) | 4 µM (≈ 1.51 µg/mL)
O=[N+]([O-])c1ccc(-n2nnnc2SCc2ccccc2)cc1 | 16 µM (≈ 5.01 µg/mL) | 62 µM (≈ 19.4 µg/mL) | 62 µM (≈ 19.4 µg/mL) | 125 µM (≈ 39.2 µg/mL) | 125 µM (≈ 39.2 µg/mL) | 62 µM (≈ 19.4 µg/mL) | 32 µM (≈ 10 µg/mL) | 62 µM (≈ 19.4 µg/mL) | 32 µM (≈ 10 µg/mL) | 16 µM (≈ 5.01 µg/mL)
O=[N+]([O-])c1ccc(CSc2nnnn2-c2ccccc2)c([N+](=O)[O-])c1 | 16 µM (≈ 5.73 µg/mL) | 62 µM (≈ 22.2 µg/mL) | 32 µM (≈ 11.5 µg/mL) | 8 µM (≈ 2.87 µg/mL) | 16 µM (≈ 5.73 µg/mL) | 32 µM (≈ 11.5 µg/mL) | 62 µM (≈ 22.2 µg/mL) | 32 µM (≈ 11.5 µg/mL) | 62 µM (≈ 22.2 µg/mL) | 8 µM (≈ 2.87 µg/mL)
CC(=O)SCc1cc([N+](=O)[O-])cc([N+](=O)[O-])c1 | 16 µM (≈ 4.1 µg/mL) | 125 µM (≈ 32 µg/mL) | 500 µM (≈ 128 µg/mL) | 8 µM (≈ 2.05 µg/mL) | 16 µM (≈ 4.1 µg/mL) | 62 µM (≈ 15.9 µg/mL) | 125 µM (≈ 32 µg/mL) | 125 µM (≈ 32 µg/mL) | 32 µM (≈ 8.2 µg/mL) | 62 µM (≈ 15.9 µg/mL)
Nc1cc(N)cc(CSc2nnnn2-c2ccccc2)c1 | 250 µM (≈ 74.6 µg/mL) | 1000 µM (≈ 298 µg/mL) | 1000 µM (≈ 298 µg/mL) | 250 µM (≈ 74.6 µg/mL) | 500 µM (≈ 149 µg/mL) | 1000 µM (≈ 298 µg/mL) | 1000 µM (≈ 298 µg/mL) | 1000 µM (≈ 298 µg/mL) | 1000 µM (≈ 298 µg/mL) | 250 µM (≈ 74.6 µg/mL)
Cn1nnnc1SCc1cc([N+](=O)[O-])cc([N+](=O)[O-])c1 | 4 µM (≈ 1.19 µg/mL) | 1000 µM (≈ 296 µg/mL) | 32 µM (≈ 9.48 µg/mL) | 4 µM (≈ 1.19 µg/mL) | 8 µM (≈ 2.37 µg/mL) | 500 µM (≈ 148 µg/mL) | 32 µM (≈ 9.48 µg/mL) | 32 µM (≈ 9.48 µg/mL) | 16 µM (≈ 4.74 µg/mL) | 16 µM (≈ 4.74 µg/mL)
NNC(=O)c1ccncc1 [ISONIAZID] | > 250 µM | > 250 µM | 4 µM (≈ 0.549 µg/mL) | 0.5 µM (≈ 0.0686 µg/mL) | 1 µM (≈ 0.137 µg/mL) | > 250 µM |  | 4 µM (≈ 0.549 µg/mL) | > 250 µM | 4 µM (≈ 0.549 µg/mL)
O=[N+]([O-])c1cc(COc2nnnn2-c2ccc(Br)cc2)cc([N+](=O)[O-])c1 | 8 µM (≈ 3.37 µg/mL) | 125 µM (≈ 52.6 µg/mL) | 16 µM (≈ 6.74 µg/mL) | 2 µM (≈ 0.842 µg/mL) | 4 µM (≈ 1.68 µg/mL) | 125 µM (≈ 52.6 µg/mL) | 16 µM (≈ 6.74 µg/mL) | 16 µM (≈ 6.74 µg/mL) | 16 µM (≈ 6.74 µg/mL) | 4 µM (≈ 1.68 µg/mL)
COc1ccc(-n2nnnc2SCc2cc(N)cc(N)c2)cc1 | 250 µM (≈ 82.1 µg/mL) | 1000 µM (≈ 328 µg/mL) | 1000 µM (≈ 328 µg/mL) | 125 µM (≈ 41.1 µg/mL) | 125 µM (≈ 41.1 µg/mL) | 1000 µM (≈ 328 µg/mL) | 1000 µM (≈ 328 µg/mL) | 1000 µM (≈ 328 µg/mL) | 1000 µM (≈ 328 µg/mL) | 250 µM (≈ 82.1 µg/mL)
COc1cccc(-n2nnnc2SCc2cc([N+](=O)[O-])cc([N+](=O)[O-])c2)c1 | 125 µM (≈ 48.5 µg/mL) | 125 µM (≈ 48.5 µg/mL) | 125 µM (≈ 48.5 µg/mL) | 2 µM (≈ 0.777 µg/mL) | 4 µM (≈ 1.55 µg/mL) | 125 µM (≈ 48.5 µg/mL) | 125 µM (≈ 48.5 µg/mL) | 125 µM (≈ 48.5 µg/mL) | 125 µM (≈ 48.5 µg/mL) | 125 µM (≈ 48.5 µg/mL)
c1ccc(C[Se]c2nnnn2C2CCCCC2)cc1 | 8 µM (≈ 2.57 µg/mL) | 125 µM (≈ 40.2 µg/mL) | 500 µM (≈ 161 µg/mL) | 125 µM (≈ 40.2 µg/mL) | 125 µM (≈ 40.2 µg/mL) | 125 µM (≈ 40.2 µg/mL) | 32 µM (≈ 10.3 µg/mL) | 250 µM (≈ 80.3 µg/mL) | 32 µM (≈ 10.3 µg/mL) | 62 µM (≈ 19.9 µg/mL)
O=[N+]([O-])c1cc(CSc2nnnn2-c2ccc(Cl)cc2)cc([N+](=O)[O-])c1 | 2 µM (≈ 0.786 µg/mL) | 125 µM (≈ 49.1 µg/mL) | 4 µM (≈ 1.57 µg/mL) | 1 µM (≈ 0.393 µg/mL) | 2 µM (≈ 0.786 µg/mL) | 125 µM (≈ 49.1 µg/mL) | 4 µM (≈ 1.57 µg/mL) | 4 µM (≈ 1.57 µg/mL) | 4 µM (≈ 1.57 µg/mL) | 2 µM (≈ 0.786 µg/mL)
CCCCCCn1nnnc1[Se]Cc1cc([N+](=O)[O-])cc([N+](=O)[O-])c1 | 1 µM (≈ 0.413 µg/mL) | 32 µM (≈ 13.2 µg/mL) | 4 µM (≈ 1.65 µg/mL) | 1 µM (≈ 0.413 µg/mL) | 1 µM (≈ 0.413 µg/mL) | 16 µM (≈ 6.61 µg/mL) | 2 µM (≈ 0.827 µg/mL) | 4 µM (≈ 1.65 µg/mL) | 2 µM (≈ 0.827 µg/mL) | 2 µM (≈ 0.827 µg/mL)
